Laboratory results: PubChem BioAssay AID1963870 (Molecular Pharmacology Branch, DTP, NCI, 2024)
pIC50: −log10 of the molar value.

Test system: 292921-168-R-J2-PDC KRAS tumor spheroid viability
Assay: Anticancer human tumor 292921-168-R-J2-PDC patient-derived pancreatic carcinoma cell line growth inhibition [KRAS2]
Conditions: spheroids with HUVEC and MSC; for pIC50: curve of first compound; for viability, T/C: stronger effect = lower value
In short: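 Combination screen of spheroid viability in tumor-cell co-cultures with endothelial (HUVEC) and mesenchymal stem cell stroma. Each agent was tested in half-log dilutions, topping at clinical Cmax or at 10 microM without a known Cmax.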

[1] = second compound 0.1 µM, first compound 0.0316 µM
[2] = second compound 0.1 µM, first compound 0.1 µM
[3] = second compound 0.316 µM, first compound 0.0316 µM
[4] = second compound 0.316 µM, first compound 0.1 µM
[5] = second compound 1 µM, first compound 0.0316 µM
[6] = second compound 1 µM, first compound 0.1 µM
[7] = second compound 3.16 µM, first compound 0.0316 µM
[8] = second compound 3.16 µM, first compound 0.1 µM
[9] = second compound 10 µM, first compound 0.0316 µM
[10] = second compound 10 µM, first compound 0.1 µM
[11] = second compound 0.1 µM, first compound 0.316 µM
[12] = second compound 0.1 µM, first compound 1 µM
[13] = second compound 0.1 µM, first compound 3.16 µM
[14] = second compound 0.1 µM, first compound 10 µM
[15] = second compound 0.316 µM, first compound 0.316 µM
[16] = second compound 0.316 µM, first compound 1 µM
[17] = second compound 0.316 µM, first compound 3.16 µM
[18] = second compound 0.316 µM, first compound 10 µM
[19] = second compound 1 µM, first compound 0.316 µM
[20] = second compound 1 µM, first compound 1 µM
[21] = second compound 1 µM, first compound 3.16 µM
[22] = second compound 1 µM, first compound 10 µM
[23] = second compound 3.16 µM, first compound 0.316 µM
[24] = second compound 3.16 µM, first compound 1 µM
[25] = second compound 3.16 µM, first compound 3.16 µM
[26] = second compound 3.16 µM, first compound 10 µM
[27] = second compound 10 µM, first compound 0.316 µM
[28] = second compound 10 µM, first compound 1 µM
[29] = second compound 10 µM, first compound 3.16 µM
[30] = second compound 10 µM, first compound 10 µM
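Also: drug exposure lasted seven days after spheroids formed for three days.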
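For viability, T/C in this document: percent of DMSO vehicle control viability which is 100%.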

Row | Structure (SMILES) | pIC50 (second compound 0.1 µM) | pIC50 (second compound 0.316 µM) | pIC50 (second compound 1 µM) | pIC50 (second compound 3.16 µM) | pIC50 (second compound 10 µM) | viability, T/C [1] | viability, T/C [2] | viability, T/C [3] | viability, T/C [4] | viability, T/C [5] | viability, T/C [6] | viability, T/C [7] | viability, T/C [8] | viability, T/C [9] | viability, T/C [10] | viability, T/C [11] | viability, T/C [12] | viability, T/C [13] | viability, T/C [14] | viability, T/C [15] | other results
1 | Cn1ncnc1[C@H]1c2n[nH]c(=O)c3cc(F)cc(c23)N[C@@H]1c1ccc(F)cc1 + CNCc1ccccc1-c1csc(C(C)Nc2nc(C)nc3cc(OC)c(OC)cc23)c1 | < 7.00 | < 7.00 | 7.62 | > 9.50 | > 9.50 | 75.9% | 63.5% | 65.5% | 56.9% | 48.6% | 41.4% | 0.08% | 0.13% | 0.35% | 0.15% |  |  |  |  |  | viability, T/C (second compound 0.1 µM, first compound 0.000316 µM): 87.7%; viability, T/C (second compound 0.1 µM, first compound 0.001 µM): 87.8%; viability, T/C (second compound 0.1 µM, first compound 0.00316 µM): 84.2%; viability, T/C (second compound 0.1 µM, first compound 0.01 µM): 81.3%; viability, T/C (second compound 0.316 µM, first compound 0.000316 µM): 77.3%; viability, T/C (second compound 0.316 µM, first compound 0.001 µM): 84.3%; viability, T/C (second compound 0.316 µM, first compound 0.00316 µM): 79.9%; viability, T/C (second compound 0.316 µM, first compound 0.01 µM): 69.2%; viability, T/C (second compound 1 µM, first compound 0.000316 µM): 57.3%; viability, T/C (second compound 1 µM, first compound 0.001 µM): 55.7%; viability, T/C (second compound 1 µM, first compound 0.00316 µM): 57.6%; viability, T/C (second compound 1 µM, first compound 0.01 µM): 52.6%; viability, T/C (second compound 3.16 µM, first compound 0.000316 µM): 0.07%; viability, T/C (second compound 3.16 µM, first compound 0.001 µM): 0.08%; viability, T/C (second compound 3.16 µM, first compound 0.00316 µM): 0.08%; viability, T/C (second compound 3.16 µM, first compound 0.01 µM): 0.07%; viability, T/C (second compound 10 µM, first compound 0.000316 µM): 0.08%; viability, T/C (second compound 10 µM, first compound 0.001 µM): 0.08%; viability, T/C (second compound 10 µM, first compound 0.00316 µM): 0.48%; viability, T/C (second compound 10 µM, first compound 0.01 µM): 0.87%
2 | CC1OCC2(CCN(c3cnc(Sc4ccnc(N)c4Cl)c(N)n3)CC2)C1N (stereo not given) + C=CC(=O)N1CCN(c2nc(=O)n(-c3c(C)ccnc3C(C)C)c3nc(-c4c(O)cccc4F)c(F)cc23)C(C)C1 | 5.94 | 5.72 | 5.69 | 6.66 | > 7.50 | 96.8% | 83.1% | 108% | 82.5% | 104% | 89.9% | 65.2% | 57.6% | 17.8% | 15.9% | 64.5% | 51% | 42% | 33.4% | 69.2% | viability, T/C [16]: 59.9%; viability, T/C [17]: 45.6%; viability, T/C [18]: 34.2%; viability, T/C [19]: 73.5%; viability, T/C [20]: 55.5%; viability, T/C [21]: 46.6%; viability, T/C [22]: 41.1%; viability, T/C [23]: 45.9%; viability, T/C [24]: 39%; viability, T/C [25]: 36.7%; viability, T/C [26]: 29.6%; viability, T/C [27]: 16.3%; viability, T/C [28]: 15.5%; viability, T/C [29]: 15.1%; viability, T/C [30]: 14.4%
3 | O=C(c1cc(Cc2n[nH]c(=O)c3ccccc23)ccc1F)N1CCN(C(=O)C2CC2)CC1 + COc1cc2nc(C)nc(NC(C)c3cc(N)cc(C(F)(F)F)c3)c2cc1OC1CCOC1 | < 5.00 | 5.02 | 5.01 | 5.19 | 5.01 | 111% | 119% | 111% | 105% | 130% | 116% | 86.7% | 82.5% | 83.8% | 84.3% | 108% | 113% | 99.8% | 52.1% | 98.2% | viability, T/C [16]: 102%; viability, T/C [17]: 92.1%; viability, T/C [18]: 48%; viability, T/C [19]: 118%; viability, T/C [20]: 119%; viability, T/C [21]: 88.7%; viability, T/C [22]: 49.2%; viability, T/C [23]: 76%; viability, T/C [24]: 75.7%; viability, T/C [25]: 63.2%; viability, T/C [26]: 41.6%; viability, T/C [27]: 77.9%; viability, T/C [28]: 73.5%; viability, T/C [29]: 85%; viability, T/C [30]: 49.8%
